# Source: the supplement of paper PMC10307832
# Key:
# Experiment in all cases: relative viability (nuclei count vs DMSO), 5 days (fraction); higher = more cells survive
# [1] = compound: C1/C(=C\C2=CC=CS2)/C(=O)/C(=C/C3=CC=CS3)/C1 + Cc1cc(Nc2cc(N3CCN(C)CC3)nc(Sc3ccc(NC(=O)C4CC4)cc3)n2)n[nH]1 [Tozasertib] (partner 0.1 µM)
# Method in brief: (§1)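 Lung cancer cell lines were seeded in 1536-well plates and dosed by pin tool the next day, with either a single drug or a fixed anchor-drug dose combined with five library-drug doses (not always all listed) spaced in √10 steps. Five days later, one step fixed the cells and stained their nuclei (final 0.05% Triton X-100, 1% formaldehyde, 1 ug/ml Hoechst), and nuclei were counted on 4× images. Relative viability is the nuclei count in treated wells divided by the count in vehicle wells, and each value is the median of duplicate plates.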
# TPCA-1 + Phenformin = compound: C1=CC(=CC=C1C2=CC(=C(S2)NC(=O)N)C(=O)N)F [TPCA-1] + N=C(N)NC(=N)NCCc1ccccc1 [Phenformin] (partner 250 µM)
# Method in brief: as §1
# TPCA-1 + Linsitinib = compound: C1=CC(=CC=C1C2=CC(=C(S2)NC(=O)N)C(=O)N)F [TPCA-1] + C[C@]1(O)C[C@@H](c2nc(-c3ccc4ccc(-c5ccccc5)nc4c3)c3c(N)nccn32)C1 [Linsitinib] (partner 1 µM)
# Method in brief: as §1
# [2] = compound: C1/C(=C\C2=CC=CS2)/C(=O)/C(=C/C3=CC=CS3)/C1 + O=C(c1cc(Cc2n[nH]c(=O)c3ccccc23)ccc1F)N1CCN(C(=O)C2CC2)CC1 [Olaparib] (partner 8 µM)
# Method in brief: as §1
Cell Line,relative viability ([1]; first compound 0.2 µM),relative viability ([1]; first compound 0.6325 µM),relative viability ([1]; first compound 2 µM),relative viability ([1]; first compound 6.325 µM),relative viability ([1]; first compound 20 µM),relative viability (TPCA-1 + Phenformin; first compound 0.04 µM),relative viability (TPCA-1 + Phenformin; first compound 0.1265 µM),relative viability (TPCA-1 + Phenformin; first compound 0.4 µM),relative viability (TPCA-1 + Phenformin; first compound 1.265 µM),relative viability (TPCA-1 + Phenformin; first compound 4 µM),relative viability (TPCA-1 + Linsitinib; first compound 0.04 µM),relative viability (TPCA-1 + Linsitinib; first compound 0.1265 µM),relative viability (TPCA-1 + Linsitinib; first compound 0.4 µM),relative viability (TPCA-1 + Linsitinib; first compound 1.265 µM),relative viability (TPCA-1 + Linsitinib; first compound 4 µM),relative viability ([2]; first compound 0.2 µM),relative viability ([2]; first compound 0.6325 µM),relative viability ([2]; first compound 2 µM),relative viability ([2]; first compound 6.325 µM),relative viability ([2]; first compound 20 µM)
SK-MES-1,0.922,0.977,0.942,0.818,0.831,0.679,0.612,0.668,0.596,0.498,1.17,0.985,1.01,0.859,0.634,0.792,0.781,0.696,0.669,0.729
NCI-H1355,0.565,0.577,0.603,0.562,0.48,0.515,0.415,0.47,0.393,0.305,0.99,0.709,0.737,0.711,0.667,0.742,0.76,0.727,0.657,0.736
NCI-H838,0.295,0.264,0.321,0.216,0.231,0.612,0.516,0.672,0.367,0.288,1.06,0.868,0.962,0.886,0.811,0.779,0.752,0.704,0.714,0.739
LK-2,0.157,0.155,0.196,0.168,0.175,0.868,0.236,0.444,0.603,0.206,0.349,0.332,0.507,0.52,0.196,0.769,0.787,0.765,0.853,0.753
NCI-H322M,0.533,0.439,0.474,0.454,0.483,0.922,0.7,0.797,0.795,0.375,1.02,0.834,0.952,0.803,0.607,0.827,0.776,0.822,0.783,0.762
NCI-H661,0.324,0.361,0.374,0.308,0.36,0.281,0.272,0.269,0.306,0.253,0.524,0.487,0.706,0.534,0.411,0.757,0.76,0.712,0.614,0.81
NCI-H2228,0.239,0.235,0.246,0.145,0.261,0.396,0.292,0.412,0.285,0.272,0.789,0.723,0.627,0.825,0.455,0.69,0.431,0.606,0.543,0.482
NCI-H1395,0.767,0.879,0.91,0.686,0.754,0.445,0.488,0.449,0.436,0.499,1.55,0.954,1.07,0.959,0.884,0.494,0.53,0.435,0.458,0.453
NCI-H520,0.531,0.506,0.458,0.398,0.406,0.872,0.473,0.844,0.579,0.177,1.16,0.832,0.989,0.838,0.921,0.316,0.34,0.324,,0.35
NCI-H441,0.657,0.614,0.613,0.631,0.528,1.15,0.688,0.934,0.703,0.283,0.669,0.287,0.569,0.328,0.188,0.556,0.493,0.532,0.404,0.569
